Source: paper doi:10.1101/469072v1 (biorxiv, 2018)
Where two headings read alike, the source gives them in different places.

Experiments:
NfGlck [1] = experiment: coupled glucokinase assay, absorbance at […] nm; format: biochemical, Naegleria fowleri
NfGlck [2] = experiment: coupled glucokinase assay, absorbance at […] nm; format: biochemical, Naegleria fowleri; details: read-out: apparent Km, MgCl2
HsGlck [3] = biological target: T1, HsGlck (Homo sapiens, UniProt P35557); experiment: biochemical
T1 sequence (P35557 1-465): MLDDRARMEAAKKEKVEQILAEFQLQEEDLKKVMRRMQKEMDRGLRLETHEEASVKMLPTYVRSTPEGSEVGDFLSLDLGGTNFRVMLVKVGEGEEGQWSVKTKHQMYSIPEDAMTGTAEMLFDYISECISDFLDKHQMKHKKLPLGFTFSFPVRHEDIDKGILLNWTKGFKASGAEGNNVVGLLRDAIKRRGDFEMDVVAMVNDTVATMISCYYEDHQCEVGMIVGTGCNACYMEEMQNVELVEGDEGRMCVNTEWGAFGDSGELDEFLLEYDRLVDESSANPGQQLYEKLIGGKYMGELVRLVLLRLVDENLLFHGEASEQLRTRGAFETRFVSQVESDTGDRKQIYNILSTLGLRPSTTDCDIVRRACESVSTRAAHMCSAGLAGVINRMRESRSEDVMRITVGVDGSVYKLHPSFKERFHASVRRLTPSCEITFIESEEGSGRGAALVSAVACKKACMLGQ

TbHK1 [4] = biological target: T2, TbHK1 (Trypanosoma brucei, UniProt Q38C42); details: read-out: TbHK1 IC50; inhibitor
T2 sequence (Q38C42 1-471): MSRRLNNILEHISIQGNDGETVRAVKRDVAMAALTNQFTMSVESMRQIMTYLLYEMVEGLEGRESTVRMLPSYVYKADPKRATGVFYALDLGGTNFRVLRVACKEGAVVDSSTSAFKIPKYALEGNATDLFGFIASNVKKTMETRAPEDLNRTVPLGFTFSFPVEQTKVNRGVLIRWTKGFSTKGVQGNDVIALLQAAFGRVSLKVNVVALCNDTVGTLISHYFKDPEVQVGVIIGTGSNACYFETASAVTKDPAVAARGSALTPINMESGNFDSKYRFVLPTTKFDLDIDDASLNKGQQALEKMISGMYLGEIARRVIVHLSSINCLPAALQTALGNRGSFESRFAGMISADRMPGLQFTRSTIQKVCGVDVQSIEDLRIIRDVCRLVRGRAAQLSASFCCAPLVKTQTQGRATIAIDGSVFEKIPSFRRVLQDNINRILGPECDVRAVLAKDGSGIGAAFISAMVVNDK

NfGlck [5] = experiment: coupled glucokinase assay, absorbance at […] nm; format: biochemical, Naegleria fowleri; details: pH 7.4, MgCl2
TbHK1 [6] = biological target: T2, TbHK1; experiment: enzyme inhibition assay; format: biochemical
HsGlck [7] = biological target: T1, HsGlck; experiment: enzyme inhibition assay; format: biochemical
PfHK = biological target: T3, PfHK (Plasmodium falciparum, UniProt Q02155); experiment: enzyme inhibition assay; format: biochemical
T3 sequence (Q02155 1-493): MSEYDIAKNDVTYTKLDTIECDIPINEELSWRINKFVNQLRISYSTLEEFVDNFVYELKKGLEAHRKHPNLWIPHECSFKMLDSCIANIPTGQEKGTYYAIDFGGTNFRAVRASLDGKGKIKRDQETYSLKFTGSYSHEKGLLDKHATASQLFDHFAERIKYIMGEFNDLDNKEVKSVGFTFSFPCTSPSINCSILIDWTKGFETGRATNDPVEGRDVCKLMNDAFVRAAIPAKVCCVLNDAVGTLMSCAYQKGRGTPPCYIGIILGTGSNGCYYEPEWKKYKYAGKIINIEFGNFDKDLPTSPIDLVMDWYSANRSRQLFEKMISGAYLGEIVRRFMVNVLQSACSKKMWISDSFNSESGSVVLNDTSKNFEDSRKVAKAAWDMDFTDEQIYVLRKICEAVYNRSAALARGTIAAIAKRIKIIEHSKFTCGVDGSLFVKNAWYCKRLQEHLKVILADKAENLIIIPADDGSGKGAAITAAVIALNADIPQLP

[8] = mixed inhibitor with respect to ATP

Compound `Nc1ncnc2c1ncn2[C@@H]1O[C@H](COP(=O)(O)OP(=O)(O)O)[C@@H](O)[C@H]1O` [ADP] has a Ki (NfGlck [1]) of 116 ± 7 µM.
For `Nc1ncnc2c1ncn2[C@@H]1O[C@H](COP(=O)(O)OP(=O)(O)OP(=O)(O)O)[C@@H](O)[C@H]1O` [ATP], the Km (NfGlck [2]; co-substrate glucose) was 142 ± 9.9 µM.
With `CC(C)(C)c1ccc(C(=O)Nc2cc(Cl)c(-c3ccc(C(F)(F)F)cc3)cc2C(=O)O)cc1` [SID162211070] the IC50 (HsGlck [3]) was > 10 µM and the IC50 (TbHK1 [4]) was > 10 µM.
With `CC(C)(C)c1ccc(C(=O)Nc2cc(Cl)c(-c3ccc(C(=O)O)cc3)cc2C(=O)O)cc1` [SID162211072] the IC50 (HsGlck [3]) was > 10 µM and the IC50 (TbHK1 [4]) was 3.5 µM.
For `CC(C)(C)c1ccc(C(=O)Nc2cc(Cl)c(-c3ccc(OC(F)(F)F)cc3)cc2C(=O)O)cc1` [SID162211074], the IC50 (HsGlck [3]) was > 10 µM and the IC50 (TbHK1 [4]) was > 10 µM.
With `CC(C)(C)c1ccc(C(=O)Nc2cc(Cl)c(-c3cccc([N+](=O)[O-])c3)cc2C(=O)O)cc1` [SID162211082] the IC50 (HsGlck [3]) was > 10 µM and the IC50 (TbHK1 [4]) was > 10 µM.
`NC(N)=Nc1ccc(-c2ccc(-c3ccc(N=C(N)N)cc3Cl)o2)c(Cl)c1` [compound 1, 2-[3-chloro-4-[5-[2-chloro-4-(diaminomethylideneamino)phenyl]furan-2-yl]phenyl]guanidine] was tested, and the IC50 (NfGlck [5]; [8]) was 2.02 ± 0.31 µM, the IC50 (TbHK1 [6]) was 2.9 ± 1.13 µM and the IC50 (HsGlck [7]) was > 10 µM. The IC50 (PfHK) was 0.78 ± 0.17 µM.
With `NC(N)=Nc1ccc(-c2ccc(-c3ccc(N=C(N)N)c(Cl)c3)o2)cc1Cl` [compound 2, 2-[2-chloro-4-[5-[3-chloro-4-(diaminomethylideneamino)phenyl]furan-2-yl]phenyl]guanidine] the IC50 (NfGlck [5]; [8]) was 0.7 ± 0.09 µM, the IC50 (TbHK1 [6]) was 1.3 ± 0.43 µM and the IC50 (HsGlck [7]) was 2.58 ± 0.53 µM. The IC50 (PfHK) was 0.16 ± 0.06 µM.
Work on `O=c1c2ccccc2[se]n1-c1ccccc1` [compound 3, 2-phenyl-1,2-benzisoselenazol-3(2H)-one] yielded an IC50 (NfGlck [5]) of 0.88 ± 0.06 µM.
With `O=c1c2ccccc2sn1-c1ccccc1` [compound 4, Ebsulfur] the IC50 (NfGlck [5]) was > 10 µM.
For `CC(C)(C)c1ccc(C(=O)Nc2cc(Cl)c(C3CC3)cc2C(=O)O)cc1` [compound 6, SID162211071], the IC50 (NfGlck [5]) was > 10 µM, the IC50 (TbHK1 [6]) was 6.7 ± 0.38 µM and the IC50 (HsGlck [7]) was > 10 µM.
With `CC(C)(C)c1ccc(C(=O)Nc2cc(Cl)c(-c3cccnc3)cc2C(=O)O)cc1` [compound 7, SID162211077] the IC50 (NfGlck [5]) was > 10 µM, the IC50 (TbHK1 [6]) was > 10 µM and the IC50 (HsGlck [7]) was > 10 µM.
With `CC(C)(C)c1ccc(C(=O)Nc2cc(Cl)c(-c3ccccc3)cc2C(=O)O)cc1` [compound 8, SID144241590] the IC50 (NfGlck [5]) was > 10 µM, the IC50 (TbHK1 [6]) was 0.28 µM and the IC50 (HsGlck [7]) was > 10 µM. The IC50 (PfHK) was > 10 µM.
For `CC(C)(C)c1ccc(C(=O)Nc2cc(Cl)c(-c3cccc(F)c3)cc2C(=O)O)cc1` [compound 9, SID162211078], the IC50 (NfGlck [5]) was > 10 µM, the IC50 (TbHK1 [6]) was > 10 µM and the IC50 (HsGlck [7]) was > 10 µM.
`CC(C)(C)c1ccc(C(=O)Nc2cc(Cl)c(-c3ccccc3F)cc2C(=O)O)cc1` [compound 10, SID162211083] was tested, and the IC50 (NfGlck [5]) was > 10 µM, the IC50 (TbHK1 [6]) was 6.7 ± 1 µM and the IC50 (HsGlck [7]) was > 10 µM.
For `CC(C)(C)c1ccc(C(=O)Nc2cc(Cl)c(-c3cccc(Cl)c3)cc2C(=O)O)cc1` [compound 11, SID162211084], the IC50 (NfGlck [5]) was 6.5 ± 0.61 µM, the IC50 (TbHK1 [6]) was > 10 µM and the IC50 (HsGlck [7]) was > 10 µM.
For `CC(C)(C)c1ccc(C(=O)Nc2cc(Cl)c(-c3ccc(F)c(Cl)c3)cc2C(=O)O)cc1` [compound 12, SID162211073], the IC50 (NfGlck [5]) was 5.9 ± 0.26 µM, the IC50 (TbHK1 [6]) was > 10 µM and the IC50 (HsGlck [7]) was > 10 µM.
`CC(C)(C)c1ccc(C(=O)Nc2cc(Cl)c(-c3ccc(Cl)c(Cl)c3)cc2C(=O)O)cc1` [compound 13, SID162211080] was tested, and the IC50 (NfGlck [5]) was 2.9 ± 0.32 µM, the IC50 (TbHK1 [6]) was > 10 µM and the IC50 (HsGlck [7]) was > 10 µM.
`COc1cccc(-c2cc(C(=O)O)c(NC(=O)c3ccc(C(C)(C)C)cc3)cc2Cl)c1` [compound 14, SID162211075] was tested, and the IC50 (NfGlck [5]) was > 10 µM and the IC50 (TbHK1 [6]) was 3.9 ± 0.65 µM.
For `COc1ccccc1-c1cc(C(=O)O)c(NC(=O)c2ccc(C(C)(C)C)cc2)cc1Cl` [compound 15, SID162211076], the IC50 (NfGlck [5]) was > 10 µM, the IC50 (TbHK1 [6]) was 9.3 ± 0.55 µM and the IC50 (HsGlck [7]) was > 10 µM.
`CC(C)(C)c1ccc(C(=O)Nc2cc(Cl)c(-c3ccc(O)cc3)cc2C(=O)O)cc1` [compound 16, SID162211079] was tested, and the IC50 (NfGlck [5]) was > 10 µM, the IC50 (TbHK1 [6]) was 3.1 ± 0.17 µM and the IC50 (HsGlck [7]) was > 10 µM.
For `CC(C)(C)c1ccc(C(=O)Nc2cc(Cl)c(-c3ccccc3O)cc2C(=O)O)cc1` [compound 17, SID162211085], the IC50 (NfGlck [5]) was > 10 µM, the IC50 (TbHK1 [6]) was 1.2 ± 0.1 µM and the IC50 (HsGlck [7]) was > 10 µM.
With `Cc1ccccc1-c1cc(C(=O)O)c(NC(=O)c2ccc(C(C)(C)C)cc2)cc1Cl` [compound 18, SID162211086] the IC50 (NfGlck [5]) was > 10 µM, the IC50 (TbHK1 [6]) was > 10 µM and the IC50 (HsGlck [7]) was > 10 µM.
`N[C@H]1C(O)O[C@H](CO)[C@@H](O)[C@@H]1O` (stereo partly shown) [glucosamine] was tested, and the Ki (NfGlck [1]; competitive inhibitor of glucose) was 186 ± 20.6 µM.
`OC[C@H]1OC(O)[C@H](O)[C@@H](O)[C@@H]1O` (stereo partly shown) [glucose] was tested, and the Km (NfGlck [2]; co-substrate ATP) was 42.5 ± 7.3 µM.
